These results are taken from US20090036547A1 (priority 2005, published 2009).

In experiment [1] the test system is range of mosquito species (larvae). In words: WHO standard larval bioassay, summary over all strains. It counts as in vivo, Anopheles, Aedes, Culex. As to conditions: Example 2, LD90 similar in susceptible and resistant strains.
In experiment [2] the test system is Anopheles albimanus (susceptible) Mexico larvae. As to the kind of experiment: WHO standard larval bioassay. It is filed as in vivo. As to conditions: Example 2, An. Albimanus Susceptible, 10% working dilution in ethanol (mixture 5%+5%), 24 hours.
Experiment [3] concerns Anopheles stephensi (Organophosphate Resistant) ST Mal larvae. In words: WHO standard larval bioassay. It is filed as in vivo. As to conditions: Example 2, An. Stephensi OP Resistant, 10% working dilution in ethanol (mixture 5%+5%), 24 hours.
Experiment [4] has as its system Culex pipiens pipiens (susceptible) Pip larvae. In words: WHO standard larval bioassay. It is filed as in vivo. As to conditions: Example 2, Cx. pipiens Susceptible, 10% working dilution in ethanol (mixture 5%+5%), 24 hours.
Experiment [5] concerns Aedes albopictus (susceptible) Albo larvae. In words: WHO standard larval bioassay. It is filed as in vivo. As to conditions: Example 2, Ae. albopictus Susceptible, 10% working dilution in ethanol (mixture 5%+5%), 24 hours.
Experiment [6] has as its system Anopheles gambiae (susceptible) KWA larvae. In words: WHO standard larval bioassay. It is filed as in vivo. As to conditions: Example 2, An. Gambiae Susceptible, 10% working dilution in ethanol (mixture 5%+5%), 24 hours.
Experiment [7] has as its system Anopheles albimanus (Carbamate Resistant) FEST larvae. As to the kind of experiment: WHO standard larval bioassay. It is filed as in vivo. As to conditions: Example 2, An. albimanus Carbamate Resistant, 10% working dilution in ethanol (mixture 5%+5%), 24 hours.
For experiment [8], the system named is Anopheles gambiae (Pyrethroid Resistant) VKPR larvae. In words: WHO standard larval bioassay. As to conditions: Example 2, An. Gambiae Py. Resistant, 10% working dilution in ethanol (mixture 5%+5%), 24 hours. It counts as in vivo.
Experiment [9] concerns Anopheles stephensi (susceptible) Beech larvae. As to the kind of experiment: WHO standard larval bioassay. It is filed as in vivo. As to conditions: Example 2, An. Stephensi Susceptible, 10% working dilution in ethanol (mixture 5%+5%), 24 hours.
Experiment [10] has as its system Aedes aegypti (susceptible) AeAe larvae. In words: WHO standard larval bioassay. It counts as in vivo. As to conditions: Example 2, Ae. Aegypti Susceptible, 10% working dilution in ethanol (mixture 5%+5%), 24 hours.
The test system of experiment [11] is Anopheles gambiae (DDT resistant) ZANDS larvae. In words: WHO standard larval bioassay. It counts as in vivo. As to conditions: Example 2, An. Gambiae DDT Resistant, 10% working dilution in ethanol (mixture 5%+5%), 24 hours.
The test system of experiment [12] is Culex quinquefasciatus (susceptible) Muheza larvae. As to the kind of experiment: WHO standard larval bioassay. It counts as in vivo. As to conditions: Example 2, Cx. quinquefasciatus Susceptible, 10% working dilution in ethanol (mixture 5%+5%), 24 hours.

With `Cc1ccc(C(C)C)cc1` [p-Cymene, p-cymene], the “cross resistance to existing insecticide classes (pyrethroids/OP's/Carbamates/Organochlorines)” value in experiment [1] was “no evidence of cross resistance”. Further, the LD90 is 0.088 mL in [2]; 0.134 mL in experiment [3]; 0.120 mL in [4]; 0.150 mL in experiment [5]; 0.140 mL in [6]; 0.191 mL in [7]. Besides, the LD90 in experiment [8] is 0.202 mL; in experiment [9], 0.085 mL; in experiment [10] it was 0.198 mL; in experiment [11], 0.204 mL; in [12] it was 0.215 mL.
In the case of `Cc1ccc(C(C)C)c(O)c1` [Thymol], in experiment [1], the “cross resistance to existing insecticide classes (pyrethroids/OP's/Carbamates/Organochlorines)” value is “no evidence of cross resistance”. The LD90 was 0.115 mL in experiment [2]; 0.177 mL in [3]; 0.135 mL in experiment [4]; 0.172 mL in experiment [5]; 0.177 mL in [6]; 0.224 mL in experiment [7]. Also, the LD90 in experiment [8] is 0.261 mL; in experiment [9], 0.112 mL; in experiment [10], 0.302 mL; in experiment [11] it was 0.235 mL; in experiment [12], 0.330 mL.
